PubChem BioAssay (NCI)
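The compound was tested at five concentrations on cells cultured in 96-well plates, with a 48-hour exposure period. TGI: concentration producing complete growth inhibition.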

What was measured:
Assay in all cases: DTP human tumour cell line panel, 48 h
[1] = tested on: 786-0 renal
[2] = tested on: A498 renal
[3] = tested on: A549 NSCLC
[4] = tested on: CAKI-1 renal
[5] = tested on: CCRF-CEM leukemia
[6] = tested on: COLO 205 colon
[7] = tested on: DLD-1 colon
[8] = tested on: DMS 114 small cell lung
[9] = tested on: DMS 273 small cell lung
[10] = tested on: EKVX NSCLC
[11] = tested on: HCC-2998 colon
[12] = tested on: HCT-116 colon
[13] = tested on: HCT-15 colon
[14] = tested on: HL-60(TB) leukemia
[15] = tested on: HOP-62 NSCLC
[16] = tested on: HOP-92 NSCLC
[17] = tested on: HT29 colon
[18] = tested on: IGROV1 ovarian
[19] = tested on: K-562 leukemia
[20] = tested on: KM12 colon
[21] = tested on: LOX IMVI melanoma
[22] = tested on: LXFL 529 NSCLC
[23] = tested on: M14 melanoma
[24] = tested on: M19-MEL melanoma
[25] = tested on: MALME-3M melanoma
[26] = tested on: MOLT-4 leukemia
[27] = tested on: NCI-H23 lung
[28] = tested on: NCI-H460 lung
[29] = tested on: NCI-H522 lung
[30] = tested on: OVCAR-3 ovarian
[31] = tested on: OVCAR-4 ovarian
[32] = tested on: OVCAR-8 ovarian
[33] = tested on: RPMI-8226 leukemia
[34] = tested on: RXF 393 renal
[35] = tested on: RXF-631 renal
[36] = tested on: SF-268 CNS
[37] = tested on: SF-295 CNS
[38] = tested on: SF-539 CNS
[39] = tested on: SK-MEL-2 melanoma
[40] = tested on: SK-MEL-28 melanoma
[41] = tested on: SK-MEL-5 melanoma
[42] = tested on: SK-OV-3 ovarian
[43] = tested on: SN12C renal
[44] = tested on: SNB-19 CNS
[45] = tested on: SNB-75 CNS
[46] = tested on: SNB-78 CNS
[47] = tested on: SW-620 colon
[48] = tested on: TK-10 renal
[49] = tested on: U251 CNS
[50] = tested on: UACC-257 melanoma
[51] = tested on: UACC-62 melanoma
[52] = tested on: UO-31 renal
[53] = tested on: XF 498 CNS

Measured: TGI

COC(=O)C1C(=O)N(CCc2c[nH]c3ccccc23)C[C@@H]2CCC(=O)C[C@H]12 (stereo partly drawn)
> 100 µM: all assays above
